Test results: patent US8883228B2, “Composition for heart disease, its active ingredients, method to prepare same and uses thereof” (Tasly Pharmaceutical Group Co. Ltd., priority 2003, dated 2014)

What was measured:
vegetative nerve balance = test: Adjustment of vegetative nerve, heart rate variation (HRV); format: in vivo, human; conditions: before and after treatment
Source text: This test uses “Wenger-Chongzhongchongxion” vegetative nerve balance factor analysis to test the heart rate variation (HRV), that is, the fluctuation in the average heartbeat over a certain period of time or over a long time period in the R-R period. Data, including effects on the sympathetic and para-sympathetic nerves can be calculated, to reflect the regulatory function of the vegetative nervous system. […] A decrease in HRV means the sympathetic nerve is excited. It is directly proportional to the symptoms in coronary heart disease and the possibility of sudden death and irregularity of heartbeat. DSP can control over-excitement of the […] nerve and regulate the balance in the vegetative nerve.

[1] = test system: angina caused by coronary heart disease; test: Senior group angina, comparative analysis of DSP and Nifedipine; format: in vivo, human; conditions: treatment of angina caused by coronary heart disease
Method: Both DSP and Nifedipine can treat angina caused by coronary heart disease, but the latter has side effects which are not suitable for long-term use. In order to choose suitable drugs for patients with a need for long-term treatment of coronary heart disease, a comparative analysis of DSP and Nifedipine in the treatment of angina caused by coronary heart disease was carried out. DSP is made for angina. It activates blood circulation and relieves pain efficiently. […] Nifedipine is a short-term-effective calcium antagonist with a short half-life and functional time, so angina may occur during medication. […] Many reports state that long-term treatment with Nifedipine is harmful to coronary arteries. DSP can prevent decreased blood flow to the cardiac muscles and the development of atherosclerosis.

[2] = test system: chronic pulmonary heart disease; test: Healing effect on chronic pulmonary heart disease; format: in vivo, human; conditions: treatment group versus control group
Source text: The total efficacy rate of treatment group is 95% and that of the control group 76%, the difference of which is statistically significant (P[…]0.05). […] There was a significant difference in the efficacy of the two groups (X^2=4.46 and 4.95, P[…]0.05). […] There were obvious changes in blood flow in the Treatment group before and after treatment compared with that of the Control group (P[…]0.05). The blood viscosity of the control group decreased after treatment, but there was no statistical deviation.

[3] = test system: Wistar rat's artificial heart; test: Cardiac arrhythmia caused by exogenous free radicals, Langendorff perfusion; conditions: 1 mg/L; ferrous sulfate/citrate free radicals alone up to 100%
Source text: Langendorff perfusion device was used to pour ferrous sulfate (0.25 mmol/L)/citrate (1.0 mmol/L) into the Wistar rat's artificial heart. The model of free radicals causing heart rhythm irregularity was replicated to observe the effects of DSP.

O=[N+]([O-])O[C@H]1CO[C@H]2[C@@H]1OC[C@H]2O[N+](=O)[O-] [Isordil]
SDNN in R-R (vegetative nerve balance): no significant difference
percentage of y>+0.56 (vegetative nerve balance factor) (vegetative nerve balance): not significant

COC(=O)C1=C(C)NC(C)=C(C(=O)OC)C1c1ccccc1[N+](=O)[O-] [Nifedipine]
side effects [1]: many side effects

OCCN(CCO)c1nc(N2CCCCC2)c2nc(N(CCO)CCO)nc(N3CCCCC3)c2n1 [persantin]
total efficacy rate [2]: 76%

COc1ccc(CCN(C)CCCC(C#N)(c2ccc(OC)c(OC)c2)C(C)C)cc1OC (centres unmarked) [verapamil]
irregularity percentage (cardiac arrhythmia) [3]: 71.4%
